Measured values as given in patent US20210246140A1, “MODULATORS OF METABOTROPIC GLUTAMATE RECEPTOR 2” (The General Hospital Corporation, priority 2020, published 2021).

Assays:
mGluR2 = target: T1, mGluR2 (Homo sapiens, UniProt Q14416); conditions: calcium flux, Gα15 or Gα16 forced coupling; read-out: previously reported mGluR2 EC50; cited from earlier work
T1 construct: expressed in transfected cells

[1] = Microsomal stability in rat liver microsomes; format: in vitro ADME; conditions: rat liver microsomes with NADPH, ML128 as positive control
Procedure: Compound stability in rat liver microsomal was tested using a published method. [see refs. 57, 58] In a vial 1.5 μL of test compound (1 mM in DMSO stock solution) was mixed with 432 μL of PBS (50 mM, pH 7.4). The mixture was kept at 37° C. for 10 min before adding 13 μL of Sprague-Dawley rat liver microsomes (Sigma-Aldrich, No. M9066). The vial was vortexed and shaken at 37° C. for 5 min, followed by addition of 50 μL of NADPH (10 mM in PBS stock solution) to start the reaction. The mixture was incubated at 37° C. for 0, 5, 15, 30, 45 min, respectively, and quenched by addition of 250 μL of ice-cold acetonitrile and 3 μL of the internal standard (0.5 mM in DMSO). The quenched solutions were centrifuged at 10,000 g for 15 min. The supernatant was collected and quantitated by RP-HPLC (Phenomenex Luna® column 5 μC18, 100 Å, 250×4.6 mm; 0.7 mL/min, 15 min, Acetonitrile/water/0.1% FA). The procedure was repeated three times for each compound. Compound 1-OH was used as internal standard and compound ML128 served as positive control. The percentage of remaining intact test-compound was calculated by (peak area at the specific time point)/(peak area at 0 min)×100%. Each procedure was repeated three times (FIGS. 8 and 9). For FIG. 8, the natural logarithm (In) of peak area ratio (test compound peak area/internal standard peak area) was plotted against time and the gradient of the line was determined. Subsequently, the half-life (t1/2) min was calculated as 0.693/k, where the elimination rate constant (k) equals to negative gradient. V (μL/mg) was obtained as a ratio of volume of incubation (μL)/protein in the incubation (mg). Finally, the intrinsic clearance (CLint) (μL/min/mg protein) was calculated as V×0.693/t1/2.
(§1) The in vitro plasma and liver microsomal stability of 1 and 2 were studied by incubating the test compounds in rat serum and rat liver microsomes as well as NADPH cofactor, respectively, using previously published methods [see refs. 57, 58]. […] The solution stability of 1 was evaluated with buffer solutions at pH 5.0, 7.4 and 9.4, respectively (FIGS. 10 and 20) [see refs. 61].

[2] = Plasma protein binding assay (equilibrium dialysis, RED device); format: in vitro ADME; conditions: rat plasma
Procedure: Disposable RED device inserts (product 90006) were from Thermos Scientific (Waltham, Mass.). Each insert was made of two side-by-side chambers separated by a vertical cylinder of dialysis membrane (MWCO 8,000) validated for minimal non-specific binding. A stock solution of the test compound in DMSO was spiked into the rat plasma to reach a concentration of 10 μM. 400 μL of sample solution was placed into the sample chamber of the RED device, and 600 μL of phosphate-buffered saline (PBS) was added to the buffer chamber of the RED device. Samples were prepared in triplicates. The plate was covered with aluminum sealing cover and incubated at 37° C. on an orbital shaker at approximately 200 rpm for 5 h. After incubation, 300 μL of post-dialysis samples from the buffer and sample chambers were transferred to different microcentrifuge tubes. To the buffer sample was added 300 μL of plasma, and an equal volume of buffer was added to the collected plasma sample. 600 μL of cold acetonitrile was added to the samples, and the samples were vortexed and incubated for 30 min on ice and then were centrifuged at 14000 rpm for 10 min. Supernatant was transferred to vial for HPLC analysis (XTerra™ MS C18 5μ, 2.1×250 mm column; Gradient elution from 5% to 90% B in 30 min; 0.1 M ammonium formate in water (A) and acetonitrile (B); UV 254 nm; 100 μL of injection volume). The percentage of the test bound compound was calculated as % Free=(Concentration in buffer chamber/Concentration in plasma chamber)×100%; % Bound=100%−% Free (FIG. 6).
(§2) The experimental lipophilicity was measured by using liquid-liquid partition between n-octanol and water (“shake-flask method”) [see ref. 54]. […] The plasma protein binding comprises compounds' binding to albumin, α1-acid glycoprotein and lipoproteins once delivered to the bloodstream. This property was evaluated for compounds 1 and 2 by equilibrium dialysis [see ref. 56], where two chambers were separated by a dialysis membrane (MWCO 8 kD). The plasma protein bindings of 1 and 2 are 87.2% and 88.7%, respectively (see FIGS. 20 and 6). Therefore, the high plasma free fraction of compounds 1 and 2 (>10%) would allow enough free drug concentration in blood stream to reach the brain targets.

Determination of Log P = format: physicochemical; conditions: experimental lipophilicity
Procedure: Determination of Log P The Log P was determined using a reversed-phase HPLC method. First, seven reference compounds were examined to obtain the linear regression of the log P against the log of capacity factors by the expression: log Pow=a+b*log k. The Log P of these reference compounds was already been determined. The capacity factor k was calculated by the expression: k=(tR−t0)/t0. The retention time tR of test compound was determined on the HPLC (Agilent 1260 infinity II LC System, XTerra™ MS Cis 5μ 2.1×250 mm, methanol/water=75/25, 0.25 mL/min). The dead-time to was measured by using thiourea. The linear regression equation of the Log P against the log of capacity factors was generated in Excel: log Pow=3.049+2.429*log k, where R^2 was 0.9964. The retention time of compound 1, 2, and 7 was also determined on the HPLC under the same condition and each test was repeated three times (FIG. 5).
as §2

[3] = Plasma stability in rat serum; format: in vitro ADME; conditions: 37° C., diltiazem as positive control
Procedure: Compound stability in rat serum was examined using a published method. [See ref. 57] Rat serum (100 μL, Abeam, Inc, No. ab7488) and test compound or control compound (2.5 μL, 1 mM in DMSO) was added to the individual tube. The tube was vortexed and incubated at 37° C. During the incubation, aliquots of 50 μL samples were quenched with ice-cold acetonitrile at 0, 15, 30, 60, and 120 min time points, respectively. After mixing, the quenched samples were centrifuged, and the supernatant was withdrawn for analysis by HPLC (Agilent 1260 infinity II LC System, XTerra™ MS C18, 5μ, 2.1×250 mm, 20 mM ammonium formate (A)/acetonitrile (B), 0.25 mL/min, gradient of 5% to 100% B). The samples were assayed at least three times. Compound 1-OH was used as internal standard while diltiazem was used as a positive control. The percentage remaining was calculated by (peak area at the specific time point)/(peak area at 0 min)×100% (FIG. 7).
as §1

mGluR2 in rat brain = mGluR2 in rat brain (Rattus norvegicus, UniProt P31421); assay: In vivo PET imaging of [11C]1 in rat brain with blocking studies
Sequence of mGluR2 in rat brain (P31421 19-872): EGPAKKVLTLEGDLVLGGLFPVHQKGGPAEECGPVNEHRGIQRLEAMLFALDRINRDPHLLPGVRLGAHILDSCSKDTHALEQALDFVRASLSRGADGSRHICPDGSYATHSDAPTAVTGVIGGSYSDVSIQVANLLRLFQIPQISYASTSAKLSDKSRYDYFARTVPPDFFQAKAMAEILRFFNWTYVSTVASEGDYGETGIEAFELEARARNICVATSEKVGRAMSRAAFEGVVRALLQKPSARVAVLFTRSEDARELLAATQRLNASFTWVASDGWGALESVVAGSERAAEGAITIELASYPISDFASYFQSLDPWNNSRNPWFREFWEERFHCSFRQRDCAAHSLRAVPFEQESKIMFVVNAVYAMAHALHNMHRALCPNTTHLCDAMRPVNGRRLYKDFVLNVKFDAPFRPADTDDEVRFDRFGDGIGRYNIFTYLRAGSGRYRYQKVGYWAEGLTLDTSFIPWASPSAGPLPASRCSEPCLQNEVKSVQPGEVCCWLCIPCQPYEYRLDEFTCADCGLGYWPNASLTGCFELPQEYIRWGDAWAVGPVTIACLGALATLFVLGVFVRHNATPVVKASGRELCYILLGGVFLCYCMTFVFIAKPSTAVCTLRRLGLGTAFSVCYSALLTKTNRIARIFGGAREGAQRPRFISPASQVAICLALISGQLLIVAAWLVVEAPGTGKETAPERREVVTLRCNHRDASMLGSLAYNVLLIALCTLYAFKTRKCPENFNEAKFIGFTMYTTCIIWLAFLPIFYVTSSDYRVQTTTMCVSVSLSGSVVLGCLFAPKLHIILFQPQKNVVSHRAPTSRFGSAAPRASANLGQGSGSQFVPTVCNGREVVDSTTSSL
Procedure: The rats were adjusted into the scanner for imaging position (Triumph II Preclinical Imaging System, Trifoil Imaging, LLC, Northridge, Calif.). The vital signs such as heart rate and/or breathing were monitored throughout the imaging. […] The “cold” compounds were administered (i.v., 4 mg/kg) 10 min before the radioactivity. CT scan was performed after every PET imaging study to obtain anatomical information and correction for attenuation. […] The ROIs, i.e., whole brain, thalamus, cerebellum, striatum, and cortex, were drawn onto coronal PET slices according to the brain outlines as derived from the rat brain atlas and corresponding TACs (time-activity curves) were created by PMOD 3.2 (PMOD Technologies Ltd., Zurich, Switzerland). Percent changes between the control and blocking studies were calculated in the selected brain areas at the 10-30 min time window after injection of [^11C]1.
The characterization of [11C]1 was conducted with rat (male Sprague-Dawley) studies. […] The rats were adjusted into the scanner for imaging position (Triumph II, Trifoil Imaging Inc, Northridge, Calif.). The vital signs such as heart rate and/or breathing were monitored throughout the imaging. […] When the blocking studies were done the imaging procedures started with the baseline study using [^11C]1 followed by 2 hrs later the blocking agent and another administration of [^11C]1 in the same animal. The blocking agent was administered intravenously 2 min before injection of the second [^11C]1 if self-blocking, 10 min before [^11C]1 if blocking was with JNJ The dynamic PET data was acquired starting from the injection of radioactivity and continued for 60 min. After the dynamic PET data acquisition CT imaging was done to obtain data for attenuation as well as anatomical information of the brain. […] Percent changes between the control and blocking studies were calculated in all brain areas. […]

recombinant human P-gp = recombinant human P-gp (Homo sapiens, UniProt P08183); assay: P-gp ATPase assay (Pgp-Glo assay); format: biochemical; conditions: human P-gp membrane, verapamil as positive control
Sequence of recombinant human P-gp (P08183 whole entry): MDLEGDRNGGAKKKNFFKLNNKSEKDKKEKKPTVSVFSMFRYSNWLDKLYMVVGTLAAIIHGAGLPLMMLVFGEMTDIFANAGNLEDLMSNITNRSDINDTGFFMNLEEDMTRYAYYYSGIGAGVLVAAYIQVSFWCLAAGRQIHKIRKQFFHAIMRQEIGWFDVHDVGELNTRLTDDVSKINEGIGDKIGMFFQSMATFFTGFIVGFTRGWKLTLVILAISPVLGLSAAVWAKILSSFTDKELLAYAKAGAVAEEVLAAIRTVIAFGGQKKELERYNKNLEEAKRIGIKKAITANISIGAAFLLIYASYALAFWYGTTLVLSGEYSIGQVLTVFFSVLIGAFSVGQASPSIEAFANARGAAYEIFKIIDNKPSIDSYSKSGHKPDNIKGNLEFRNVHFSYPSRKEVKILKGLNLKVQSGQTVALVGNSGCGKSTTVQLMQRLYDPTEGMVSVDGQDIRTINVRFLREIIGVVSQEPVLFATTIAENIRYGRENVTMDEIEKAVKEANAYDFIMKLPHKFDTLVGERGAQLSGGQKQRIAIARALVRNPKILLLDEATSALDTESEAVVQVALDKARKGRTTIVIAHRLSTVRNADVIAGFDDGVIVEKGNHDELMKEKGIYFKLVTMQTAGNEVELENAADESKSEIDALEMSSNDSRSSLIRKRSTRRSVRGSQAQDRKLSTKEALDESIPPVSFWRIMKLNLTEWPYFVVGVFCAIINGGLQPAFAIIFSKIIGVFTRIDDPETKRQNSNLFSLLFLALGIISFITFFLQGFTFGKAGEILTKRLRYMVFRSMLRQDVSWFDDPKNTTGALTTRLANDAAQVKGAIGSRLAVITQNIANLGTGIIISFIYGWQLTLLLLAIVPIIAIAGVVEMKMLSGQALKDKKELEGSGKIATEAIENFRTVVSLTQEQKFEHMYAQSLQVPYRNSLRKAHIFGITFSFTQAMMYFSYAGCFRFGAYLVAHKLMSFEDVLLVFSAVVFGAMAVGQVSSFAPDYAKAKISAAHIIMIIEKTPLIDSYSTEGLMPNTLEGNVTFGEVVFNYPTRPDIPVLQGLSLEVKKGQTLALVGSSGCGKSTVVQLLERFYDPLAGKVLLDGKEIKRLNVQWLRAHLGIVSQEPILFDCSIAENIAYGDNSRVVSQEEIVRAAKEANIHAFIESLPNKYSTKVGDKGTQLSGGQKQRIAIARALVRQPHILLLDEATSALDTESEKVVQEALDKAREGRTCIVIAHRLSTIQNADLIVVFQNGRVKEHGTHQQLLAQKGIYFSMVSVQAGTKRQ
Procedure: P-gp ATPase activity was measured with the Pgp-Glo™ assay system with human P-gp membrane by following the manufacturer's instructions (Promega, Co. USA). The assay relies on the ATP dependence of the light-generating reaction of firefly luciferase. Briefly, 25 μg of P-gp membrane was incubated at 37° C. with one of these samples including Na3VO4 (100 μM), solvent control (0.1% DMSO), quercetin (100 μM), the test compound (200 μM), verapamil (100 μM), verapamil (100 μM) plus the test compound (100 μM). The ATPase reaction was initiated by addition of MgATP (5 mM) and followed by incubation for 40 min at 37° C. The reaction was stopped, and the remaining unmetabolized ATP was detected as a luciferase-generated luminescence signal by addition of ATP detection reagent. Following a room-temperature signal-stabilization period (20 min), luminescence was read on a Veritas microplate luminometer (Tuner Designs, San Francisco, Calif.). P-gp ATPase activity was presented as a drop-in luminescence of samples compared to that treated with Na3VO4.
We further evaluated compounds 1, 2, and 7 using Pgp-Go™ assay to investigate whether the brain penetration will be affected by P-glycoprotein (P-gp) efflux transporter. The Pgp-Go™ assay [see ref. 63] was carried out on recombinant human P-gp in a cell membrane fraction. […]

[4] = Ex vivo whole body biodistribution of [11C]1; format: in vivo, Sprague Dawley rats
Procedure: The quantitative biodistribution of [^11C]1 was done using 16 healthy Sprague Dawley rats (weight 330-370 g). After anesthetization (2% isoflurane with oxygen flow of 1.5 L/min) the rats were administrated with the [^11C]1 (30-42 MBq (0.81-1.14 mCi) using tail vein injection and sacrificed by decapitation at the time points 5, 20, 30 or 40 min after administration of the radioactivity. The tissue samples including blood, midbrain, cerebellum, cortex, lung, heart, liver, spleen, kidney and muscle were rapidly collected into pre-weighted gamma-counting tubes and measured with standards (samples of [^11C]1) using PerkinElmer Wizard2 2480 gamma-counter. Tubes were weighted, and the net mass of the tissue samples was determined and the percent of the injected radioactivity (% ID/g) in the samples was calculated.
The ex vivo biodistribution was performed in 16 normal male Sprague Dawley rats after intravenous injection of [^11C]1 at several time points (5, 20, 30 and 40 min). The uptake value is expressed in the unit of % ID/g. […] The highest accumulation was measured in the liver (2.73±0.02% ID/g) followed by kidney (1.05±0.07% ID/g), spleen (0.67±0.05% ID/g), lung (0.59±0.04% ID/g), and heart (0.58±0.05% ID/g). […] The average accumulation of [^11C]1 in the rat brain at 5 min was (0.49±0.07% ID/g) (FIG. 22).

T1 sequence (Q14416 19-872): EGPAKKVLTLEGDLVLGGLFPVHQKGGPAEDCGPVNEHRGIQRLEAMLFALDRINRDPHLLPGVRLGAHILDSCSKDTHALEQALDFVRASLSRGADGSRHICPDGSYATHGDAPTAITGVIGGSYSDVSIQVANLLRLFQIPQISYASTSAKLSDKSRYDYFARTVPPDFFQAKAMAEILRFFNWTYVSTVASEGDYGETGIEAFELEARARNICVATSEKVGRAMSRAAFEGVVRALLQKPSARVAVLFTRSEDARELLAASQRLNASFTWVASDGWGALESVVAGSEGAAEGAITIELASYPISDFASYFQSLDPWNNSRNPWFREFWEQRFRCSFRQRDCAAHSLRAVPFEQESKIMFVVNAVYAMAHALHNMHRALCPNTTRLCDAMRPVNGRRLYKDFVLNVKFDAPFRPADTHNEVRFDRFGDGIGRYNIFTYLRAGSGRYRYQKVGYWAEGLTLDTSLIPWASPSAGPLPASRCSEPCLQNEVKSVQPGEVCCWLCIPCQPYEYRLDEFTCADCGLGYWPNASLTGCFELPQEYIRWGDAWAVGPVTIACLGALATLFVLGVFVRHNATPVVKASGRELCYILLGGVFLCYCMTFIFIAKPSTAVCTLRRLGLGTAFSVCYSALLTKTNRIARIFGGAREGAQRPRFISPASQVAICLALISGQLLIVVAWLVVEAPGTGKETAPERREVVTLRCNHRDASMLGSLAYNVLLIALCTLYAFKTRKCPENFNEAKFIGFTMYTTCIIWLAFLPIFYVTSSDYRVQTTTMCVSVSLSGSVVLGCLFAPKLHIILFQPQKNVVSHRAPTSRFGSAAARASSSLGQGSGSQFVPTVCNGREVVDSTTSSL

Structure (SMILES): COc1cc(C(F)(F)F)ccc1C1CCN(Cc2nc3nccc4c3n2CCC4)CC1 [Compound 2]
- EC50 (mGluR2): 5 nM
- microsomal stability [1]: reasonable microsomal stability
- plasma protein binding ([2]; equilibrium dialysis, 10 μM): 88.7%
- fraction unbound at 5 h, 10 μM ([2]; read-out: plasma free fraction): > 0.1
- Log P (Determination of Log P): 3.86
- stability in rat plasma [3]: much more stable than diltiazem

Structure (SMILES): Fc1ccc(N2CCN(Cc3ccn4c(CC5CC5)nnc4c3C(F)(F)F)CC2)c(F)c1 [Compound 3, 8-Trifluoromethyl-3-cyclopropylmethyl-7-[(4-(2,4-difluorophenyl)-1-piperazinyl)methyl]-1,2,4-triazolo[4,3-a]pyridine, reference compound]
- decrease of [11C]1 uptake in different brain areas after pretreatment (mGluR2 in rat brain; 4 mg/kg i.v. 10 min before [11C]1, 10-30 min time window): 28-37%

Structure (SMILES): COc1cc(C(F)(F)F)ccc1OC[C@@H]1[C@H]2CN(Cc3nc4ncccc4n3C)C[C@@H]12 [Compound 7]
- log P (Determination of Log P; n-octanol/water): 3.3
- P-gp substrate assessment / P-gp ATPase activity (recombinant human P-gp): a potential P-gp substrate

Structure (SMILES): Cn1c(CN2CCC(c3ccc(C(F)(F)F)cc3O[11CH3])CC2)nc2ncccc21 [[^11C]1]
- average accumulation in the rat brain ([4]; i.v. [11C]1, brain at 5 min): 0.49±0.07 % ID/g
- highest accumulation in heart ([4]; rat, i.v. [11C]1, heart): 0.58±0.05 % ID/g
- highest accumulation in kidney ([4]; rat, i.v. [11C]1, kidney): 1.05±0.07 % ID/g
- highest accumulation in liver ([4]; rat, i.v. [11C]1, liver): 2.73±0.02 % ID/g
- highest accumulation in lung ([4]; rat, i.v. [11C]1, lung (maximum at 20 min)): 0.59±0.04 % ID/g
- highest accumulation in spleen ([4]; rat, i.v. [11C]1, spleen): 0.67±0.05 % ID/g
- SUVmax in brain (mGluR2 in rat brain; rat PET, n=9): 1.8±0.2
- maximum SUV (time-activity curves) (mGluR2 in rat brain; rat PET, thalamus at 2 min post-injection): 2.3
